These results are taken from publication PMC8225008, “Development of Non-Ethoxypropanoic Acid Type Cryptochrome Inhibitors with Circadian Molecular Clock-Enhancing Activity by Bioisosteric Replacement” (Pharmaceuticals, 2021).

The target in one series is T1, CYP1A2 (Homo sapiens, UniProt P05177).
T1 construct: pooled human liver microsomes (HLMs, XTreme 200, XenoTech, Lenexa, KS, USA); tissue XenoTech XTreme 200; host or cells: pooled human liver microsomes
T1 sequence (P05177 1-516): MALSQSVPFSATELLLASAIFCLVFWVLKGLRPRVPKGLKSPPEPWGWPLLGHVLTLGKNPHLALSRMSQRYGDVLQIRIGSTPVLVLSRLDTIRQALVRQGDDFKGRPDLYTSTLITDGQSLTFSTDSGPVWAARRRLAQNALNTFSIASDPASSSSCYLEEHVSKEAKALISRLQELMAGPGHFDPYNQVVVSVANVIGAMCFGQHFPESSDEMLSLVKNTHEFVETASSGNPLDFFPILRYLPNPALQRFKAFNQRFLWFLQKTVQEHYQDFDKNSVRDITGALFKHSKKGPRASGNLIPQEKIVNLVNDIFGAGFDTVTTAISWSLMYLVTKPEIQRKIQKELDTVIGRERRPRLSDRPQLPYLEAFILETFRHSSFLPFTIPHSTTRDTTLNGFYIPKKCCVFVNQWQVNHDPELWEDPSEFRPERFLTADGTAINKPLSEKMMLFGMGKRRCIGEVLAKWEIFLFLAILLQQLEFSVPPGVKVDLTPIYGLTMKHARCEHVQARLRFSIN
Nature of the series: Cytochrome P450 inhibition assay (cocktail method, human liver microsomes), phenacetin O-deethylation. Format: in vitro ADME. As for the experimental part:
(§1) The inhibitory effects of KS15 and compound 5d on the metabolism of five cytochrome P450 (P450) probe substrates were evaluated using previous methods with slight modifications. The following P450 probe substrates were used: phenacetin (100 μM) for CYP1A2, tolbutamide (100 μM) for CYP2C9, omeprazole (20 μM) for CYP2C19, dextromethorphan (5 μM) for CYP2D6, and midazolam (5 μM) for CYP3A. Incubation mixtures containing pooled human liver microsomes (HLMs, XTreme 200, XenoTech, Lenexa, KS, USA), P450 probe substrates, and KS15 or compound 5d (final concentrations: 0, 0.5, 2, 5, 20, and 50 μM) were preincubated for 5 min at 37 °C. […] After centrifugation at 18,000× g (5 min, 4 °C), supernatant aliquots were analyzed by liquid chromatography-tandem mass spectrometry (LC-MS/MS). […]
(§2) All metabolites and IS were separated on a Kinetex C18 column (100 mm × 2.1 mm, 2.6 μm ID., Phenomenex, Torrance, CA, USA) and analyzed using an LC-MS/MS system (LCMS 8060, Shimadzu, Tokyo, Japan) equipped with an electrospray ionization (ESI) interface. […]
(§3) The EC50 values for luciferase reporter assay were calculated based on a logistic four-parametric equation using the mean values of intrinsic activation (SigmaPlot 10.0; Systat Software Inc., San Jose, CA, USA). […] Pharmacokinetic parameters were calculated using non-compartmental analysis (WinNonlin v.8.3; Pharsight, Mountain View, CA, USA). […]
A general note: Liver microsomes are vesicles of endoplasmic reticulum, rich in cytochrome P450 enzymes.

In a further series the test system is CYP3A. Nature of the series: Cytochrome P450 inhibition assay (cocktail method, human liver microsomes), midazolam 1'-hydroxylation. Particulars: pooled human liver microsomes, probe midazolam (5 μM). The class given is in vitro ADME. As for the experimental part:
as §1, §2, §3

Usually IC50 stands for the midpoint of a concentration-inhibition curve. Compound `COC(=O)COc1cccc(C(C)=NOCc2ccc([N+](=O)[O-])cc2)c1` [Compound 5d, Methyl 2-(3-(1-(((4-nitrobenzyl)oxy)imino)ethyl)phenoxy)acetate] gave an IC50 against CYP1A2 of more than 50 µM. The IC50 at 10 min with CYP3A was more than 50 µM.
